Tests used:
Assay type in all cases: biochemical
citrated human plasma [1] = experiment: Activated partial thromboplastin time (APTT) analysis
Experimental: (§1) Plasma/anticoagulant samples were prepared by mixing 300 μL of the heparin standard or glycopolymer (150 μg/mL) in 0.9% saline and 2.7 mL of citrated human plasma. The tube was inverted 3 times to mix the sample thoroughly. Samples were analyzed by the UCLA Clinical & Translational Research Laboratory using a Sysmex® CA-1500 Coagulation Analyzer (Siemens AG, Erlangen, Germany). Clotting time in the absence of an anticoagulant was determined using 0.9% saline solution water (300 μl). Each clotting assay was performed in triplicate.

FXa = experiment: Chromogenic assay of anti-FXa activity in the presence of ATIII, Example 9
Experimental: All reagents were prepared according to the manufacturer's instructions and incubated at 37° C. for 15 min. Varying concentrations of heparin, low molecular weight heparin, Arixtra® or glycopolymers (0.0005-500 μg/mL; 40 μL) and ATIII (0.04 IU; 40 μL) were added to a microcentrifuge tube, mixed, and incubated at 37° C. for 2 min. To this, FXa (0.32 μg; 40 μL) was added and was incubated at 37° C. for exactly 2 min (stage 1), then FXa chromogenic substrate (48 μmol; 40 μL) was added. Exactly 2 min later (stage 2), the reaction was stopped by introducing citric acid (240 μL; 20 g/L solution). Absorbance at 405 nm was measured on a Uvikon XL spectrophotometer. The sample blank was obtained by mixing the reagents in reverse order from that of the test, i.e. citric acid, FXa substrate, FXa, ATIII, and heparinized sample. The sample blank value was deducted from the absorbance measured for the corresponding assay.

FIIa = target: T1, FIIa (Homo sapiens, UniProt P01008); experiment: Chromogenic assay of anti-FIIa activity in the presence of ATIII, Example 9; details: FIG. 12, FIG. 13B
T1 construct: purchased
Experimental: All reagents were prepared according to the manufacturer's instructions and incubated at 37° C. for 15 min. Varying concentrations of heparin, low molecular weight heparin, or glycopolymers (0.0005-500 μg/mL; 40 μL) and ATIII (0.01 IU; 40 μL) were added to a microcentrifuge tube, mixed, and incubated at 37° C. for 2 min. To this, FIIa (1.2 nkat; 40 μL) was added and was incubated at 37° C. for exactly 2 min (stage 1), then FIIa chromogenic substrate (0.05 mmol; 40 μL) was added. Exactly 2 min later (stage 2), the reaction was stopped by introducing citric acid (240 μL; 20 g/L). Absorbance at 405 nm was measured. The sample blank was obtained by mixing the reagents in reverse order from that of the test, i.e. citric acid, […], ATIII, and heparinized sample. The sample blank value was deducted from the absorbance measured for the corresponding assay.

citrated human plasma [2] = experiment: Prothrombin time (PT) analysis; details: 150 μg/mL stock, 300 μL in 2.7 mL citrated human plasma; saline control 13.3 s
Experimental: as §1, with “Samples were” for “Plasma/anticoagulant samples were”, “saline with” for “saline and”, “mL” for “mL of”, “(300 μL).” for “(300 μl).”

IC50 (FXa): 0.011 ± 0.0001 µM
anti-FIIa activity (FIIa): no appreciable activity
Structure (SMILES): CO[C@H]1O[C@H](COS(=O)(=O)O)[C@@H](O[C@@H]2O[C@@H](C(=O)O)[C@@H](O[C@H]3O[C@H](COS(=O)(=O)O)[C@@H](O[C@@H]4O[C@H](C(=O)O)[C@@H](O[C@H]5O[C@H](COS(=O)(=O)O)[C@@H](O)[C@H](O)[C@H]5NS(=O)(=O)O)[C@H](O)[C@H]4O)[C@H](OS(=O)(=O)O)[C@H]3NS(=O)(=O)O)[C@H](O)[C@H]2OS(=O)(=O)O)[C@H](O)[C@H]1NS(=O)(=O)O [Arixtra]
APTT (citrated human plasma [1]; 150 μg/mL stock, 300 μL in 2.7 mL citrated human plasma, saline control 31.2 s): 78.3 ± 0.4 s
effect on APTT and PT for clotting compared to the saline control (citrated human plasma [1]; same concentration, citrated human plasma): increased only the APTT
PT (citrated human plasma [2]): 15.1 ± 0.3 s

From patent publication US10227370B2, “Heparan sulfate/heparin mimetics with anti-chemokine and anti-inflammatory activity” (California Institute of Technology, priority 2013, dated 2019)
